According to US11413280B2 (The Board of Trustees of the Leland Stanford Junior …, priority 2017, dated 2022):

Assays:
Caspase 3/7 in PAECs = assay: Caspase-Glo 3/7 apoptosis assay; format: cell-based, human
Experimental: Assays were conducted according to the manufacturer's instructions and as previously described(E1,E9).
Quantified area=% of cells that show nuclear γH2AX staining quantified with automated software (white nuclei=positive stain, grey nuclei=background stain). […] FIGS. 9G-9H, MTT proliferation assay in Enzastaurin-treated (0.5-50 M) in PASMC and PAEC, respectively. (n=3). FIGS. 9I-9J, MTT proliferation assay in Enzastaurin-treated (5 M) siFHIT and siBMPR2 transfected PASMC compared to Ntsi control, respectively. (n=3).
As a cumulative viability measurement, we quantified caspase3/7 activity, using the luminescent Caspase-Glo®3/7 assay(36) and DNA damage, using histone H2AX phosphorylation by immunofluorescence and quantification as nuclear area staining (%) by confocal microscopy(34, 35, 37). […] PAEC proliferation was assessed via an MTT proliferation assay and hemocytometer cell counts(36).

BMPR2 = assay: Relative BMPR2 mRNA expression in PAECs (qPCR); format: cell-based, human; details: PAEC, 24 hours, low doses (5-15 uM), FIG. 14
Experimental: Human PAEC (Promocell) or human PASMC (Promocell) were grown as monolayers in gelatin-coated dishes in a commercial EC (Promocell) or SMC (Promocell) media, respectively. Cells were passaged at 1:3 ratios and used for experiments from passages 3-8. Transformed lymphocytes (i.e., lymphoblasts) were cultured in RPMI 1640 with 10-15% FBS.
FHIT expression was modulated by RNAi in PA endothelial cells (PAEC). A pool of 4 siRNAs for BMPR2, FHIT, LCK or a non-targeting control pool (Dharmacon) were transfected into PAECs using the RNAi Max kit (Invitrogen) for 48 hours. mRNA knockdown efficiency was determined by qPCR.
For mRNA, total RNA was extracted from whole lung tissue using the RNAeasy Plus Kit (Qiagen) and reverse transcribed into cDNA using random primers with the Taqman cDNA reverse transcription Kit (Applied Biosciences) according to the manufacturer's instructions. For miR, total miR was isolated from whole lung tissue using the Taqman miRNA ABC purification Kit (Applied Biosciences) and was reverse transcribed using specific primers and the Taqman microRNA reverse transcription kit (Applied Biosciences). mRNA and miR expression levels were quantified using Taqman primer/probe sets for the target and normalized to a housekeeping control (mRNA: GAPDH; miR: RNU48). […]

With `Cn1cc(C2=C(c3cn(C4CCN(Cc5ccccn5)CC4)c4ccccc34)C(=O)NC2=O)c2ccccc21` [Enzastaurin, 3-(1-methyl-1H-indol-3-yl)-4-[1-[1-(pyridin-2-ylmethyl)piperidin-4-yl]-1H-indol-3-yl]-1H-pyrrole-2,5-dione] the “Caspase 3/7-mediated apoptosis in synchronised PAECs” value (Caspase 3/7 in PAECs; 24 hours, 5 μM or 15 μM Enzastaurin, 5 μM Ly333531 hydrochloride) was “decreases”, the “Caspase 3/7 luminescence (apoptosis) in siBMPR2 and siFHIT PAEC” value (Caspase 3/7 in PAECs; t=48 h post-transfection, 15 μM Enzastaurin) was “decreased” and the “BMPR2 expression at low doses in vitro” value (BMPR2) was “increased”.
